Here are results for three compounds from publication PMC8621101, “Inhibition of XPO-1 Mediated Nuclear Export through the Michael-Acceptor Character of Chalcones” (Pharmaceuticals, 2021).

The IC50 is the concentration needed to halve the response being measured. The melting point is the temperature of the solid-liquid transition.

For data set [1], the system named is DND-41 cells. The experiment in a line: Cell proliferation assay (IncuCyte confluence), DND-41. It counts as cell-based. The settings on record: DND41; DND-41 acute lymphoblastic leukemia; 72 h; mean of two independent experiments ± SEM; read-out: IC50 antiproliferative activity DND-41. As for the experimental part: (§1) Cancer cell lines HCT-116, NCI-H460, HL-60, K-562 and Z-138 were acquired from the American Type Culture Collection (ATCC, Manassas, VA, USA). The DND-41 cell line was purchased from the Deutsche Sammlung von Mikroorganismen und Zellkulturen (DSMZ Leibniz-Institut, Brunswick, Germany), and the HAP-1 cell line was ordered from Horizon Discovery (Horizon Discovery Group, Water Beach, UK). All cell lines were cultured as recommended by the suppliers. Culture media were purchased from Gibco Life Technologies and supplemented with 10% fetal bovine serum (HyClone, GE Healthcare Life Sciences, Chicago, Illinois, USA).
(§2) Adherent cell lines HCT-116, NCI-H460 and Hap-1 cells were seeded at a density between 500 and 1500 cells per well in 384-well tissue culture plates (Greiner). After overnight incubation, cells were treated with different concentrations of the test compounds. Suspension cell lines HL-60, K-562, Z-138 and DND-41 were seeded at densities ranging from 2500 to 5500 cells per well in 384-well culture plates containing the test compounds at the same concentration points.

For data set [2], the system named is HL-60 cells. The experiment in a line: Cell proliferation assay (IncuCyte confluence), HL-60. It counts as cell-based. The settings on record: Homo sapiens; HL-60 acute myeloid leukemia; 72 h; mean of two independent experiments ± SEM; read-out: IC50 antiproliferative activity HL-60. As to the method:
as §1, §2

In data set [3] the test system is panel of cancer cell lines. The experiment in a line: Antiproliferative activity, panel of cancer cell lines. To be noted: panel of cancer cell lines. It counts as cell-based. As to the method:
as §2

Data set [4] relates to Hap-1 cells. Put plainly: Cell proliferation assay (IncuCyte confluence), Hap-1. It counts as cell-based. To be noted: Homo sapiens, HAP1; Hap-1 chronic myeloid leukemia; 72 h; mean of two independent experiments ± SEM; read-out: IC50 antiproliferative activity Hap-1. As to the method:
as §1, §2

Data set [5] relates to Z-138 cells. Put plainly: Cell proliferation assay (IncuCyte confluence), Z-138. To be noted: Homo sapiens; Z-138 non-Hodgkin lymphoma; 72 h; mean of two independent experiments ± SEM; read-out: IC50 antiproliferative activity Z-138. Type of data set: cell-based. As to the method: as §1, §2
Data set [6] has as its system NCI-H460 cells. Put plainly: Cell proliferation assay (IncuCyte confluence), NCI-H460. It counts as cell-based. The settings on record: Homo sapiens; NCI-H460 lung carcinoma; 72 h; mean of two independent experiments ± SEM; read-out: IC50 antiproliferative activity NCI-H460. As to the method:
as §1, §2

The subject of data set [7] is HCT-116 cells. The experiment in a line: Cell proliferation assay (IncuCyte confluence), HCT-116. It counts as cell-based. The settings on record: Homo sapiens; HCT-116 colorectal carcinoma; 72 h; mean of two independent experiments ± SEM; read-out: IC50 antiproliferative activity HCT-116. As for the experimental part: as §1, §2
Data set [8] concerns the target T1, XPO1 (Homo sapiens, UniProt O14980).
T1 construct: the compounds were assayed in a reporter cell line based on the subcellular localization of a XPO1-dependent GFP reporter cargo protein; endogenous in cells; host or cells: HeLa cells stably transfected with the NLSSV40-AcGFP-NESPKI reporter (only the reporter cargo is transfected, not XPO1)
The experiment in a line: XPO1 phenotypic reporter assay in HeLa NLSSV40-AcGFP-NESPKI cells. The settings on record: HeLa GFP reporter cell line. Type of data set: cell-based. As for the experimental part:
(§3) Stably transfected HeLa NLSSV40-AcGFP-NESPKI were cultured as described in Vercruysse et al.
To study the XPO1-mediated nuclear export, stably transfected HeLa NLSSV40-AcGFP-NESPKI reporter cells were seeded at 8000 cells per well in 96-well all clear tissue culture plates (TPP). After overnight incubation, cells were treated with different doses of compound or solvent (DMSO) for 2 h and then fixed and counterstained with DAPI. Fluorescence was read on an ArrayScan XTI High Content Reader (Thermo Fisher Scientific, Waltham, MA, USA). Nuclear and cytoplasmic compartments were segmented and their average pixel intensities in the green channel were quantitated employing the HCS Studio software. Genedata Screener software was used for dose-response curve fitting, and calculation of EC50 values was based on the percentage of cells having a predominant nuclear localisation (ratio of nuclear to cytoplasmic signal equal or above 1.4) of the reporter construct. Compounds were tested in two independent experiments and represented as mean ± SEM.
(In general: A reporter such as luciferase makes a cellular process visible.)

For data set [9], the system named is K-562 cells. The experiment in a line: Cell proliferation assay (IncuCyte confluence), K-562. Type of data set: cell-based. The settings on record: Homo sapiens, K562; K-562 chronic myeloid leukemia; 72 h; mean of two independent experiments ± SEM; read-out: IC50 antiproliferative activity K-562. As to the method: as §1, §2
Data set [10] in a line: GSH reactivity assay (HPLC, DTNB quench). It counts as physicochemical. The settings on record: 500 µM compound, 5 mM GSH, 37 °C. As to the method:
In order to determine if these chalcones could react with thiol groups through a hetero-Michael addition reaction, a few selected compounds (9, 10, 13 and 18) were incubated with glutathione (GSH). After different incubation times, the reactions were quenched by adding 5,5′-dithiobis(2-nitrobenzoic acid) (DTNB, Ellman´s reagent) (1:1 ratio with respect to the initial concentration of GSH). The course of the reaction was followed by HPLC, adapting reported procedures. […] Thus, although this assay is only qualitative, the tendency observed among these chalcones nicely fits the reactivity described for α-X-2´3,4,4´-tetramethylchalcones.
A 500 µM sample of the tested compound was incubated with 5 mM reduced L-glutathione for 24 h at 37 °C with a final volume of 200 μL. As a solvent system, 20 mM PBS buffer pH 7.4 with 2 mM EDTA:DMSO (1:1) was used. To perform the assay, stock solutions of 20 mM of the chalcones (9, 10, 13 and 18) and 15 mM of reduced L-glutathione were freshly prepared for every experiment and then diluted properly to give the final electrophile:nucleophile ratio (1:10). A 5 mM solution of 5,5′-dithiobis(2-nitrobenzoic acid) (DTNB) was prepared in the same solvent system to quench the reaction. After different time points (10 min, 1 h, 4 h and 24 h), an aliquot of 20 μL of the incubation mixture was quenched by adding 20 μL of the DTNB stock solution, mixed thoroughly, and then analyzed by HPLC. HPLC analysis was performed in Agilent 1120 compact LC, column ACE 5 C18-300 (15 cm × 4.6 mm); UV detection was performed at λ = 254 nm. Solvents used were acetonitrile for bottle A and H2O (containing 0.05% TFA) for bottle B, and the flow rate was 1mL/min. The gradients used were: (A) incubations with chalcone 9: from 10% to 80% of solvent A in 10 min; (B) incubations with chalcones 10 and 18: from 10% to 100% of solvent A in 10 min. The new peaks were analysed by LC-MS. As controls, a 500 μM solution of the α,β-unsaturated compound was also analysed, and a 5 mM reduced L-glutathione solution was quenched by adding DNTB at the same time points. In general, after 6 h of incubation, no GSH was detected.

Data set [11] can be described thus: Stability in phosphate-buffered solution (PBS). Type of data set: physicochemical. From the text: It has been described by performing kinetic measurements in α-X-2′3,4,4’-tetramethylchalcones that the nature of the substituent at position α of the chalcone affects their reactivity as electrophiles versus thiol groups. In such series, the α-COOEt substituent led to a similar reactivity as that of the α-H chalcone; the α-CH3 chalcone was poorly electrophilic, while the α-CN chalcone was the most electrophilic. Thus, in the naphthyl series (Figure 3), the synthesis of the chalcones where R1 = H, COOCH3, CH3 or CN was accomplished. The reaction of 1-(naphthalen-2-yl)ethan-1-one (11) with pyrimidine-5-carbaldehyde in the presence of Ba(OH)2 afforded α-H chalcone 9 in a 55% yield (Scheme 1). […] Reaction of the ester 12 with NH3/dioxane at 110 °C [29] led to the amide 14 that was further transformed into the chalcone 15. On the other hand, reaction of naphthalene 16 with propionyl chloride under Friedel–Crafts acylation conditions, as described, provided the 2-acyl derivative 17, together with a small proportion of its 1-isomer. This mixture of isomers reacted with pyrimidine-5-carbaldehyde to yield the α-CH3 chalcone 18 (30%). Finally, the synthesis of the α-CN derivative was addressed by the reaction of 2-methylnaphthoate (19) with acetonitrile to provide 3-oxopropanenitrile 20 [32], which was further transformed into the α-CN chalcone 21.

Data set [12] deals with T2, XPO1 (Jurkat XPO1^WT) (Homo sapiens, UniProt O14980).
T2 construct: RanBP1 immunofluorescence staining was performed on both wild type and mutant XPO1^C528S Jurkat cells; endogenous in cells; host or cells: wild-type Jurkat leukemia cells
Put plainly: RanBP1 immunofluorescence (XPO1-mediated nuclear export) in wild-type Jurkat cells. The settings on record: positive control at 1 μM, 3 h. Type of data set: cell-based. As to the method: (§4) The effect of the mutation on the activity of the inhibitors was assessed by the visualization of the subcellular localization of the XPO1 cargo RanBP1.
as §3
(§5) Cells were harvested at 400× g, washed in PBS and then transferred into an 8-well µ-Slide (Ibidi) pretreated with 0.1% (w/v) poly-L-lysine (Sigma). Cells were allowed to adhere to the slides and then subsequently fixed (4% PFA in PBS), washed and permeabilized (0.2% Triton X-100 in PBS). Further immunofluorescence staining was then performed according to standard procedures. Employed antibodies were rabbit anti-RanBP1 (ab97659, Abcam, Cambridge, UK) at a 1:500 dilution and secondary Alexa Fluor 488 goat anti-rabbit antibody (A11008, Invitrogen, ThermoFisher Scientific). Cell nuclei were counterstained with DAPI, and the samples were imaged by confocal microscopy on a Leica TCS SP5 confocal microscope (Leica Microsystems, Weitzlar, Germany), employing a HCX PL APO 63× (NA 1.2) water immersion objective. Subsequently, fluorescence was read on an ArrayScan XTI High Content Reader (Thermo Fisher Scientific, Waltham, MA, USA). Nuclear and cytoplasmic compartments were segmented, and their average pixel intensities in the green channel were quantitated similarly as for the XPO1 phenotypic reporter assay.

The target in data set [13] is T3, XPO1^C528S (Jurkat XPO1^C528S) (Homo sapiens, UniProt O14980, C528S).
T3 construct: CRISPR/Cas9 genome editing of the Jurkat cell line was performed as in Neggers et al. [43] to generate a XPO1^C528S mutant cell line; endogenous in cells; host or cells: Jurkat cells genome-edited by CRISPR/Cas9 at the XPO1 locus (XPO1^C528S)
T3 sequence (O14980 whole entry C528S): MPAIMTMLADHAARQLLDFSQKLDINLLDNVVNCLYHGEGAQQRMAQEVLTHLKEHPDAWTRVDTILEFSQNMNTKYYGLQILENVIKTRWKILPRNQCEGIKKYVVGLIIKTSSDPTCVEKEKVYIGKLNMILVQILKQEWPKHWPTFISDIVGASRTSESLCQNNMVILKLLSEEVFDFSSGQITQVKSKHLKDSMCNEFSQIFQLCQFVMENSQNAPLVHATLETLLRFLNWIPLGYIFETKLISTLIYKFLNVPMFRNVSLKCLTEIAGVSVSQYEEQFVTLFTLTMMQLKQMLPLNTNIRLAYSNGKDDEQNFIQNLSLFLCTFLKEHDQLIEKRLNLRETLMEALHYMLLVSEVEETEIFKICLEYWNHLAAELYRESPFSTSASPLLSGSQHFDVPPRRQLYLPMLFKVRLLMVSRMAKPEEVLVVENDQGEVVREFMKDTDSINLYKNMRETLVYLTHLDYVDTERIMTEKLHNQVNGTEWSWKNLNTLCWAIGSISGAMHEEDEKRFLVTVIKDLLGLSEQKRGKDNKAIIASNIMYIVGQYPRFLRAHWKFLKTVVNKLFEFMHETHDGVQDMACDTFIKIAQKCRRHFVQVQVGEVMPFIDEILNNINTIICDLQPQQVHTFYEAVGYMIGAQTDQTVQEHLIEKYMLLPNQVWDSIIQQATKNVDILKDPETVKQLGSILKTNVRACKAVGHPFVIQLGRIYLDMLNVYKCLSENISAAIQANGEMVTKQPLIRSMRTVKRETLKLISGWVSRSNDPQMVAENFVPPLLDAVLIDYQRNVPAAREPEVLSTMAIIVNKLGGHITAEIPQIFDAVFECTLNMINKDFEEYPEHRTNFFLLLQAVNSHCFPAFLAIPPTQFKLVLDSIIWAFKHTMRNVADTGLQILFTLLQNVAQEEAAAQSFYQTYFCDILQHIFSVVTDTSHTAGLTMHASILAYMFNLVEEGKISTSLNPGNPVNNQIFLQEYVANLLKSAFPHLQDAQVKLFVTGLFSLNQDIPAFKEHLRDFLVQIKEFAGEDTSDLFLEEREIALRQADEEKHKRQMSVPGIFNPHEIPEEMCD
The experiment in a line: RanBP1 immunofluorescence (XPO1-mediated nuclear export) in mutant XPO1^C528S Jurkat cells. The settings on record: positive control at 1 μM, 3 h. Type of data set: cell-based. As for the experimental part: as §4, §3, §5

T1 sequence (O14980 whole entry): as the sequence (O14980 whole entry C528S) above, with S528C counted along it

With `COC(=O)/C(=C/c1cncnc1)C(=O)c1ccc2ccccc2c1` [Compound 13, (E)-2-Methoxycarbonyl-1-(naphthalene-2-yl)-3-(pyrimidin-5-yl)prop-2-en-1-one], the melting point lay within 161 to 163 °C. In addition, the half-inhibitory concentration (IC50) in data set [1] was not below 30600 nM. Moreover, the IC50 in [2] is more than 100000 nM. Further, in [3], the “Antiproliferative activity, in words” value was “almost inactive”. In addition, the half-maximal inhibitory concentration (IC50) in data set [4] was not below 54900 nM. In [5], the IC50 was more than 100000 nM. In data set [6], the IC50 was not below 47100 nM. Further, in [7], the IC50 is not below 15500 nM. In addition, in [8], the “XPO1 inhibition, in words” value was “inactive against XPO1”. The concentration for half-maximal inhibition (IC50) in data set [8] (2 h treatment, mean ± SEM of two independent experiments, read-out: XPO1 inhibition IC50) was more than 100000 nM. For the same compound, the concentration for half-maximal inhibition (IC50) in [9] was more than 100000 nM. In data set [10] (PBS pH 7.4 with EDTA:DMSO 1:1), the “Reaction with GSH (hetero-Michael addition), qualitative” value is listed as “provided the Michael adducts with GSH after a short reaction time”. Moreover, the “Reversibility of GSH adducts (retro-Michael), qualitative” value in [10] (longer incubation) is “adducts reverted to the parent chalcone”.
As to `N#C/C(=C\c1cncnc1)C(=O)c1ccc2ccccc2c1` [Compound 21, (E)-2-Cyano-1-(naphthalene-2-yl)-3-(pyrimidin-5-yl)prop-2-en-1-one], the “Stability in PBS” value in [11] was “very unstable and readily decomposed”.
On to `O=C(/C=C\n1cnc(-c2cc(C(F)(F)F)cc(C(F)(F)F)c2)n1)NNc1cnccn1` [KPT-330, selinexor, reference compound], for which the IC50 turned out to be 50 nM in data set [1]; 110 ± 100 nM in [2]; 70 ± 30 nM in data set [4]; 400 ± 400 nM in data set [5]; 120 ± 80 nM in data set [6]; 100 ± 100 nM in data set [7]. Besides, the 50% inhibitory concentration (IC50) in data set [9] came to 90 nM. In addition, in data set [12], the “Subcellular localization of RanBP1, wild-type Jurkat” value is given as “RanBP1 was accumulated in the nucleus”. Moreover, the “Subcellular localization of RanBP1, mutant XPO1^C528S Jurkat” value in [13] was “RanBP1 remained in the cytoplasm”.
